Read-outs that look alike come from different tables or passages of the source.
Target: T1, human TRPV4 (hTRPV4/CHO cells) (Homo sapiens, UniProt Q9HBA0)
T1 construct: expressed in transfected cells; host or cells: CHO-K1
Test: Test Example 1: TRPV4 inhibitory activity (IC50 value), 4α-PDD stimulation, Fluo4 calcium fluorescence (FLIPR TETRA)
Assay type: cell-based

[1] = Test Example 1, 4α-PDD stimulation, read-out: Test 1 IC50

T1 sequence (Q9HBA0 whole entry): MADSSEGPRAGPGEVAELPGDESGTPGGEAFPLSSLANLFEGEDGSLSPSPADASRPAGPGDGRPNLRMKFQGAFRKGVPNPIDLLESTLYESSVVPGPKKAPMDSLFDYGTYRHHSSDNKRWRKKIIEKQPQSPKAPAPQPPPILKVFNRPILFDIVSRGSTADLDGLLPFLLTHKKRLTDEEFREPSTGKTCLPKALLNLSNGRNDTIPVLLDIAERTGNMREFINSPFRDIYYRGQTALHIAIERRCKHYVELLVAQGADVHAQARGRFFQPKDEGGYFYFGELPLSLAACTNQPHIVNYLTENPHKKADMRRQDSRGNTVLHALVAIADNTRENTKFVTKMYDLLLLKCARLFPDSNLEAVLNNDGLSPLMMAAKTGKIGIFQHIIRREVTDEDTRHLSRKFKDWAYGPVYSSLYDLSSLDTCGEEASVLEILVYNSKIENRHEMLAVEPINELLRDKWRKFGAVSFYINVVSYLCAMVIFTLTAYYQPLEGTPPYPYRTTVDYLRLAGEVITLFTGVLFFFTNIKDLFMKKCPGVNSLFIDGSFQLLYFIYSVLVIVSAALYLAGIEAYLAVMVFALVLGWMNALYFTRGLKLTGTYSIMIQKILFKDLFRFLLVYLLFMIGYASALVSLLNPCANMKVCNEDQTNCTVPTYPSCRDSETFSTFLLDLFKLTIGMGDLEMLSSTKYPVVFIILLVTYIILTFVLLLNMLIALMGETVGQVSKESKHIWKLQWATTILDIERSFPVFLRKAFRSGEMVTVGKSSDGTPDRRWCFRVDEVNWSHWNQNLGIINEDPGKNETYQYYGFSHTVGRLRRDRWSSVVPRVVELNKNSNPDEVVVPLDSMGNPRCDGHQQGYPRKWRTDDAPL

Cc1nc(CO)sc1-c1csc(NC(=O)[C@@H]2C[C@@H](c3ccccc3)CN2S(=O)(=O)C(C)C)n1 [Compound I-316]
IC50 [1]: < 100 nM

O=C(Nc1nc(-c2sc(CO)nc2CO)cs1)[C@H]1C[C@@H](NCc2ccc(C(F)(F)F)cc2)C1 [Compound I-317]
IC50 [1]: 1000 to 8000 nM

Cc1nc(CO)sc1-c1csc(NC(=O)[C@H]2C[C@@H](N(C)Cc3ccc(C(F)(F)F)cc3)C2)n1 [Compound I-318]
IC50 [1]: < 100 nM

Cc1nc(CO)sc1-c1csc(NC(=O)[C@H]2C[C@@H](NCc3ccc(C(F)(F)F)cc3)C2)n1 [Compound I-319]
IC50 [1]: 100 to 1000 nM

O=C(Cc1ccc(S(=O)(=O)C(F)(F)F)cc1)Nc1nc(-c2sc(CO)nc2/C=C/CO)cs1 [Compound I-320]
IC50 [1]: < 100 nM

NC(=O)c1nc(CO)c(-c2csc(NC(=O)C3CN(Cc4ccccc4C(F)(F)F)C3)n2)s1 [Compound I-322]
IC50 [1]: 100 to 1000 nM

COC(=O)N1C[C@H](c2ccccc2)C[C@H]1C(=O)Nc1nc(-c2sc(CO)nc2C)cs1 [Compound I-323]
IC50 [1]: < 100 nM

NC(=O)c1nc(CO)c(-c2csc(NC(=O)C3CN(Cc4cccc(C(F)(F)F)c4)C3)n2)s1 [Compound I-324]
IC50 [1]: 100 to 1000 nM

NC(=O)c1nc(CO)c(-c2csc(NC(=O)C3CN(Cc4ccc(C(F)(F)F)cc4)C3)n2)s1 [Compound I-325]
IC50 [1]: 100 to 1000 nM

Cc1nc(C)c(-c2csc(NC(=O)[C@H]3C[C@H](Cl)C3)n2)s1 [Compound I-326]
IC50 [1]: < 100 nM

O=C(Nc1nc(-c2sc(CO)nc2CO)cs1)C1CN(c2ccccc2C(F)(F)F)C1 [Compound I-327]
IC50 [1]: < 100 nM

Cc1nc(CO)sc1-c1csc(NC(=O)[C@@H]2C[C@@H](c3ccccc3)CN2C(=O)C(C)(C)F)n1 [Compound I-328]
IC50 [1]: < 100 nM

Cc1nc(CO)sc1-c1csc(NC(=O)C2CN(C(=O)OC(C)(C)C(F)(F)F)C2)n1 [Compound I-329]
IC50 [1]: < 100 nM

O=C(Nc1nc(-c2sc(CO)nc2CO)cs1)C1CC(Oc2ccc(C(F)(F)F)cc2)C1 (stereo not drawn) [Compound I-330]
IC50 [1]: < 100 nM

Cc1nc(CO)sc1-c1csc(NC(=O)[C@H]2C[C@@H](OCc3ccc(Cl)cc3)C2)n1 [Compound I-331]
IC50 [1]: < 100 nM

O=C(Nc1nc(-c2sc(CO)nc2CO)cs1)[C@H]1C[C@@H](OCc2ccc(Cl)cc2)C1 [Compound I-332]
IC50 [1]: 100 to 1000 nM

Cc1nc(CO)sc1-c1csc(NC(=O)C2CC(OCC3CC3)C2)n1 (stereo not drawn) [Compound I-333]
IC50 [1]: 1000 to 8000 nM

N#CCc1nc(CO)sc1-c1csc(NC(=O)C2CN(c3ccc(C(F)(F)F)cc3)C2)n1 [Compound I-334]
IC50 [1]: < 100 nM

Cc1nc(CO)sc1-c1csc(NC(=O)[C@H]2C[C@@H](OCc3ccc(C(F)(F)F)cc3)C2)n1 [Compound I-335]
IC50 [1]: < 100 nM

O=C(Nc1nc(-c2sc(CO)nc2CO)cs1)[C@@H]1C[C@@H](c2ccccc2)CN1C(=O)OCC(F)(F)F [Compound I-336]
IC50 [1]: 100 to 1000 nM

O=C(Nc1nc(-c2sc(CO)nc2CO)cs1)[C@@H]1C[C@@H](c2ccccc2)CN1CC(F)(F)F [Compound I-337]
IC50 [1]: 1000 to 8000 nM

O=C(Nc1nc(-c2sc(CO)nc2CO)cs1)[C@@H]1C[C@@H](c2ccccc2)CN1S(=O)(=O)C(F)(F)F [Compound I-338]
IC50 [1]: 100 to 1000 nM

O=C(Nc1nc(-c2sc(CO)nc2CO)cs1)C1CC(OCC2CC2)C1 (stereo not drawn) [Compound I-339]
IC50 [1]: 1000 to 8000 nM

NCc1nc(CO)sc1-c1csc(NC(=O)C2CN(c3ccc(C(F)(F)F)cc3)C2)n1 [Compound I-340]
IC50 [1]: 100 to 1000 nM

CC(C)c1ccc(N2CC(C(=O)Nc3nc(-c4sc(CO)nc4CO)cs3)C2)cc1 [Compound I-341]
IC50 [1]: < 100 nM

O=C(Nc1nc(-c2sc(CO)nc2CO)cs1)C1CN(c2ccccc2Cl)C1 [Compound I-342]
IC50 [1]: 100 to 1000 nM

O=C(Nc1nc(-c2sc(CO)nc2CO)cs1)C1CN(c2ccc(Cl)cc2)C1 [Compound I-343]
IC50 [1]: < 100 nM

CC(C)OC(=O)N1C[C@H](c2ccccc2)C[C@H]1C(=O)Nc1nc(-c2sc(CO)nc2CO)cs1 [Compound I-344]
IC50 [1]: 100 to 1000 nM

NC(=O)NCc1nc(CO)sc1-c1csc(NC(=O)C2CN(c3ccc(C(F)(F)F)cc3)C2)n1 [Compound I-345]
IC50 [1]: < 100 nM

Cc1nc(CO)sc1-c1csc(NC(=O)[C@H]2C[C@@H](OCc3ccccc3C(F)(F)F)C2)n1 [Compound I-346]
IC50 [1]: < 100 nM

O=C(Nc1nc(-c2sc(CO)nc2CO)cs1)[C@H]1C[C@@H](OCc2ccccc2C(F)(F)F)C1 [Compound I-347]
IC50 [1]: 100 to 1000 nM

O=C(Nc1nc(-c2sc(CO)nc2CCCO)cs1)C1CN(c2ccc(C(F)(F)F)cc2)C1 [Compound I-348]
IC50 [1]: < 100 nM

CC(C)(F)C(=O)N1C[C@H](c2ccccc2)C[C@H]1C(=O)Nc1nc(-c2sc(CO)nc2CO)cs1 [Compound I-349]
IC50 [1]: 100 to 1000 nM

CC(C)OC(=O)NCc1nc(CO)sc1-c1csc(NC(=O)C2CN(c3ccc(C(F)(F)F)cc3)C2)n1 [Compound I-350]
IC50 [1]: < 100 nM

O=C(O)CCc1nc(CO)sc1-c1csc(NC(=O)C2CN(c3ccc(C(F)(F)F)cc3)C2)n1 [Compound I-351]
IC50 [1]: 1000 to 8000 nM

O=C(Nc1nc(-c2sc(CO)nc2CCCN2CCOCC2)cs1)C1CN(c2ccc(C(F)(F)F)cc2)C1 [Compound I-352]
IC50 [1]: < 100 nM

CC(=O)NCc1nc(CO)sc1-c1csc(NC(=O)C2CN(c3ccc(C(F)(F)F)cc3)C2)n1 [Compound I-353]
IC50 [1]: < 100 nM

Cc1nc(C)c(-c2csc(NC(=O)[C@H]3C[C@@H](OCc4ccc(C(F)(F)F)cc4)C3)n2)s1 [Compound I-354]
IC50 [1]: < 100 nM

Cc1nc(CO)sc1-c1csc(NC(=O)[C@H]2C[C@@H](C(F)F)C2)n1 [Compound I-355]
IC50 [1]: 100 to 1000 nM

Cc1nc(CO)sc1-c1csc(NC(=O)[C@H]2C[C@@H](OCC(F)(F)F)C2)n1 [Compound I-356]
IC50 [1]: 100 to 1000 nM

Cc1nc(CO)sc1-c1csc(NC(=O)[C@H]2C[C@H](OCC(F)(F)F)C2)n1 [Compound I-357]
IC50 [1]: < 100 nM

NC(=O)Cc1nc(CO)sc1-c1csc(NC(=O)Cc2ccc(S(=O)(=O)C(F)(F)F)cc2)n1 [Compound I-358]
IC50 [1]: 100 to 1000 nM

N#CCc1nc(CO)sc1-c1csc(NC(=O)Cc2ccc(S(=O)(=O)C(F)(F)F)cc2)n1 [Compound I-359]
IC50 [1]: < 100 nM

O=C(Cc1ccc(S(=O)(=O)C(F)(F)F)cc1)Nc1nc(-c2sc(CO)nc2CCCO)cs1 [Compound I-360]
IC50 [1]: < 100 nM

Cc1nc(CO)sc1-c1csc(NC(=O)C2CC(N3CCC(F)(F)C3)C2)n1 (stereo not drawn) [Compound I-361]
IC50 [1]: 1000 to 8000 nM

Cc1nc(CO)sc1-c1csc(NC(=O)C2CC(N3CCC(F)(F)C3)C2)n1 (stereo not drawn) [Compound I-362]
IC50 [1]: 1000 to 8000 nM

O=C(Cc1ccc(S(=O)(=O)C(F)(F)F)cc1)Nc1nc(-c2sc(CO)nc2CCC(=O)N2CCOCC2)cs1 [Compound I-363]
IC50 [1]: 100 to 1000 nM

Cc1nc(C)c(-c2csc(N(CCCN3CCOCC3)C(=O)Cc3ccc(S(=O)(=O)C(F)(F)F)cc3)n2)s1 [Compound I-364]
IC50 [1]: 1000 to 8000 nM

Cc1nc(C)c(-c2csc(NC(=O)[C@H]3C[C@H](Oc4ccc(C(F)(F)F)cc4)C3)n2)s1 [Compound I-365]
IC50 [1]: < 100 nM

O=C(Cc1ccc(S(=O)(=O)C(F)(F)F)cc1)Nc1nc(-c2sc(CO)nc2CCO)cs1 [Compound I-366]
IC50 [1]: < 100 nM

Cc1nc(C)c(-c2csc(NC(=O)[C@H]3C[C@@H](N(C)Cc4ccc(C(F)(F)F)cc4)C3)n2)s1 [Compound I-367]
IC50 [1]: < 100 nM

Cc1nc(C)c(-c2csc(NC(=O)[C@H]3C[C@H](N(C)Cc4ccc(C(F)(F)F)cc4)C3)n2)s1 [Compound I-368]
IC50 [1]: < 100 nM

Cc1nc(CO)sc1-c1csc(NC(=O)C2CN(c3ccc(C(F)(F)F)cc3)C2)n1 [Compound I-369]
IC50 [1]: < 100 nM

NC(=O)OCCc1nc(CO)sc1-c1csc(NC(=O)Cc2ccc(S(=O)(=O)C(F)(F)F)cc2)n1 [Compound I-370]
IC50 [1]: < 100 nM

O=C(Nc1nc(-c2sc(CO)nc2CO)cs1)C1CN(c2ccccc2)C1 [Compound I-371]
IC50 [1]: 100 to 1000 nM

O=C(Nc1nc(-c2sc(CO)nc2CO)cs1)C1CN(c2ccc(F)cc2)C1 [Compound I-372]
IC50 [1]: 100 to 1000 nM

NC(=O)OCc1nc(CO)sc1-c1csc(NC(=O)Cc2ccc(S(=O)(=O)C(F)(F)F)cc2)n1 [Compound I-373]
IC50 [1]: < 100 nM

Cc1nc(C)c(-c2csc(N(Cc3ccc(C(F)(F)F)cc3)C(=O)C3CN(O)C3)n2)s1 [Compound I-374]
IC50 [1]: 1000 to 8000 nM

O=C(Cc1ccc(S(=O)(=O)C(F)(F)F)cc1)Nc1nc(-c2sc(CO)nc2CCN2CCOCC2)cs1 [Compound I-375]
IC50 [1]: < 100 nM

O=C(Cc1ccc(S(=O)(=O)C(F)(F)F)cc1)Nc1nc(-c2sc(CO)nc2CC(=O)N2CCOCC2)cs1 [Compound I-376]
IC50 [1]: 1000 to 8000 nM

O=C(Cc1ccc(S(=O)(=O)C(F)(F)F)cc1)Nc1nc(-c2sc(CO)nc2CCCN2CCOCC2)cs1 [Compound I-377]
IC50 [1]: < 100 nM

Cc1nc(COC(N)=O)sc1-c1csc(NC(=O)Cc2ccc(S(=O)(=O)C(F)(F)F)cc2)n1 [Compound I-378]
IC50 [1]: 100 to 1000 nM

Cc1nc(C)c(-c2csc(NC(=O)C3CCN(c4ncc(C(F)(F)F)cn4)CC3)n2)s1 [Compound I-379]
IC50 [1]: < 100 nM

Cc1nc(CO)oc1-c1csc(NC(=O)Cc2ccc(S(=O)(=O)C(F)(F)F)cc2)n1 [Compound I-380]
IC50 [1]: 100 to 1000 nM

NC(=O)NCc1nc(CO)sc1-c1csc(NC(=O)Cc2ccc(S(=O)(=O)C(F)(F)F)cc2)n1 [Compound I-381]
IC50 [1]: 100 to 1000 nM

CC(=O)NCc1nc(CO)sc1-c1csc(NC(=O)Cc2ccc(S(=O)(=O)C(F)(F)F)cc2)n1 [Compound I-382]
IC50 (1 μmol/L 4α-PDD, Fluo4-AM, read-out: TRPV4 inhibitory activity (IC50 value)): 22 nM | IC50 [1]: < 100 nM

O=C(CO)NCc1nc(CO)sc1-c1csc(NC(=O)Cc2ccc(S(=O)(=O)C(F)(F)F)cc2)n1 [Compound I-383]
IC50 [1]: 100 to 1000 nM

NS(=O)(=O)NCc1nc(CO)sc1-c1csc(NC(=O)Cc2ccc(S(=O)(=O)C(F)(F)F)cc2)n1 [Compound I-384]
IC50 [1]: 100 to 1000 nM

O=C(Cc1ccc(S(=O)(=O)C(F)(F)F)cc1)Nc1nc(-c2sc(CO)nc2CN2CCOCC2)cs1 [Compound I-385]
IC50 [1]: 100 to 1000 nM

Cc1nc(C)c(-c2csc(NC(=O)OC3CN(c4ncc(C(F)(F)F)cn4)C3)n2)s1 [Compound I-386]
IC50 [1]: 1000 to 8000 nM

Cc1nc(C)c(-c2csc(NC(=O)[C@H]3CCN(c4ncc(C(F)(F)F)cn4)C3)n2)s1 [Compound I-388]
IC50 [1]: < 100 nM

— US20170066759A1, “AROMATIC 5-MEMBERED HETEROCYCLIC DERIVATIVE HAVING TRPV4-INHIBITING ACTIVITY” (Shionogi & Co., Ltd., priority 2012, published 2017)
